Reference: patent US9326513B2, “Fungicidal compositions” (Syngenta Participations AG, priority 2011, dated 2016)

What was measured:
Format in all cases: in vivo
Details in all cases: foliar, compared to untreated control leaf disks, read-out: disease control
[1] = test system: Puccinia recondita f. sp. tritici; experiment: Puccinia recondita f. sp. tritici / wheat / leaf disc curative (brown rust)
Experimental: Puccinia recondita f. sp. tritici/Wheat/Leaf Disc Curative (Brown Rust) Wheat leaf segments cv. Kanzler are placed on agar in multiwell plates (24-well format). The leaf segments are inoculated with a spore suspension of the fungus. Plates were stored in darkness at 19° C. and 75% rh. The formulated test compound diluted in water was applied 1 day after inoculation.

[2] = test system: Blumeria graminis f. sp. tritici (Erysiphe graminis f. sp. tritici); experiment: Blumeria graminis f. sp. tritici / wheat / leaf disc preventative (powdery mildew on wheat)
How it was run: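 Wheat leaf segments (cv. Kanzler) on agar were sprayed with formulated compound in water, inoculated with powdery mildew 1 day later, and kept at 20° C, 60% rh (24 h dark, then 12 h light/12 h dark). Percent disease control versus untreated scored 6-8 days after application; tested at 200 ppm.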

[3] = test system: Puccinia recondita f. sp. tritici; experiment: Puccinia recondita f. sp. tritici / wheat / leaf disc preventative (brown rust)
Excerpt: Puccinia recondita f. sp. tritici/Wheat/Leaf Disc Preventative (Brown Rust) Wheat leaf segments cv. Kanzler were placed on agar in multiwell plates (24-well format) and sprayed with the formulated test compound diluted in water. The leaf disks were inoculated with a spore suspension of the fungus 1 day after application.

Pyrenophora teres = Pyrenophora teres / barley / leaf disc preventative (net blotch)
Excerpt: Pyrenophora teres/Barley/Leaf Disc Preventative (Net Blotch) Barley leaf segments cv. Hasso were placed on agar in a multiwell plate (24-well format) and sprayed with the formulated test compound diluted in water. The leaf segments were inoculated with a spore suspension of the fungus 2 days after application.

Measured: pest or weed control at 200 ppm

CCCC(C)Oc1nc(C)c(/N=C/N(C)CC)cc1Br (stereo not drawn) [Q.146]
≥ 50%: all assays above

CCN(C)/C=N/c1cc(Br)c(OCCCCc2ccccc2)nc1C [Q.148]
≥ 50%: all assays above

CCN(C)/C=N/c1cc(Br)c(OCc2cccc(C#N)c2)nc1C [Q.155]
≥ 50%: all assays above

CCN(C)/C=N/c1cc(Br)c(OC2CCSCC2)nc1C [Q.158]
≥ 50%: all assays above

CCN(C)/C=N/c1cc(Br)c(OC2CCN(C(C)=O)CC2)nc1C [Q.160]
≥ 50%: all assays above

CCN(C)/C=N/c1cc(Br)c(OC2CCS(=O)(=O)CC2)nc1C [Q.161]
≥ 50%: all assays above

CCN(C)/C=N/c1cc(Br)c(OC2CCN(C(=O)C(C)C)CC2)nc1C [Q.162]
≥ 50%: all assays above

CCN(C)/C=N/c1cc(Br)c(OC2CCN(S(C)(=O)=O)CC2)nc1C [Q.163]
≥ 50%: all assays above

CCN(C)/C=N/c1cc(Br)c(OC2CCN(S(=O)(=O)N(C)C)CC2)nc1C [Q.164]
≥ 50%: all assays above

CCN(C)/C=N/c1cc(Br)c(OC2CCC(OC)CC2)nc1C (stereo not drawn) [Q.166]
≥ 50%: all assays above

CCN(C)/C=N/c1cc(Br)c(OC2CCC(C)C2)nc1C (stereo not drawn) [Q.167]
≥ 50%: all assays above

CCN(C)/C=N/c1cc(Br)c(OC2Cc3ccc(OCc4ccccc4)cc3C2)nc1C (stereo not drawn) [Q.168]
≥ 50%: all assays above

CCN(C)/C=N/c1cc(Br)c(OCc2cccc(C(F)F)c2)nc1C [Q.170]
≥ 50%: all assays above

CCN(C)/C=N/c1cc(Br)c(OCc2cccc(I)c2)nc1C [Q.174]
≥ 50%: all assays above

CCN(C)/C=N/c1cc(Br)c(OCc2cccc(C)c2C)nc1C [Q.175]
≥ 50%: all assays above
